This note sets out measurements from ChEMBL document CHEMBL4428063, “Novel Pyrimidine Toll-like Receptor 7 and 8 Dual Agonists to Treat Hepatitis B Virus” (J Med Chem, 2016).

Series [1] is described as follows: Oral bioavailability in cynomolgus monkey at 3 mg/kg, measured after 24 hrs. The settings on record: in vivo. It is filed as ADME, organism-based, Macaca fascicularis.
The nature of series [2]: AUC(0 to last) in cynomolgus monkey plasma at 9 mg/kg, administered through oral gavage measured after 24 hrs. On the set-up: dose 9 mg/kg, route oral, time 0 - last. In kind it is ADME, organism-based, Macaca fascicularis.
In series [3] the test system is human MDR1. Briefly: Apparent permeability across apical to basolateral side in MDCK cells expressing human MDR1 at 1 uM by LC-MS/MS analysis. It is filed as ADME, cell-based, Canis lupus familiaris. The settings on record: dog.
Series [4] has as its target T1, Toll-like receptor 6 (Homo sapiens) (UniProt Q9Y2C9).
T1 sequence (whole entry): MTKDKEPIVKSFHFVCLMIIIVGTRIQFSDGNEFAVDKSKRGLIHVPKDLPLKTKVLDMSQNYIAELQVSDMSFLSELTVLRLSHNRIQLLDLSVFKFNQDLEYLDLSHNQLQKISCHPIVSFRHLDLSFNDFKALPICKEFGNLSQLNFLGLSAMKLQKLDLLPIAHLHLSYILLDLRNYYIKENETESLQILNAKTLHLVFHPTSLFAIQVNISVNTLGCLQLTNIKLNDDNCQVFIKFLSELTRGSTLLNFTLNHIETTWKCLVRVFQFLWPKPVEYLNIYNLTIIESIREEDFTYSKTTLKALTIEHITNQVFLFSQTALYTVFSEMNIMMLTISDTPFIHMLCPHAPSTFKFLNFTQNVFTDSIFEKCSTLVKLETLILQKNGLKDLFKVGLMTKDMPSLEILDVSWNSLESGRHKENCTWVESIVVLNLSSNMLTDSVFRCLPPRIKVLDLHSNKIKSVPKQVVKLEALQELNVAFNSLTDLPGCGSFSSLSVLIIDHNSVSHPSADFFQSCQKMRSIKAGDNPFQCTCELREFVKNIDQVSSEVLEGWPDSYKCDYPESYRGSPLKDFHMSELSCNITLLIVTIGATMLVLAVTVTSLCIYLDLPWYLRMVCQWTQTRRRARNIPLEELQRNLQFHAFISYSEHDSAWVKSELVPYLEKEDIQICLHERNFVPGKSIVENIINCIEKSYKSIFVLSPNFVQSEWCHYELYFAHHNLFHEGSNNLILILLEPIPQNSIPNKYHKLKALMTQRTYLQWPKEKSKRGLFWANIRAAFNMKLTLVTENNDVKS
Nature of the series: Agonist activity at wild-type human TLR6 expressed in HEK293 cells up to 25 uM measured after 6 hrs by NF-kappaB luciferase reporter gene assay. In kind it is cell-based. In general terms: Reporter assays use an easily measured gene product as a stand-in for the process of interest.

The nature of series [5]: Tmax in Sprague-Dawley rat plasma at 10 mg/kg, po. In kind it is ADME, organism-based.
Series [6] in a line: Tmax in cynomolgus monkey plasma at 30 mg/kg, administered through oral gavage measured after 24 hrs. It is filed as ADME, organism-based, Macaca fascicularis.
Series [7] deals with T2, Toll-like receptor 7 (Homo sapiens) (UniProt Q9NYK1).
T2 sequence (whole entry): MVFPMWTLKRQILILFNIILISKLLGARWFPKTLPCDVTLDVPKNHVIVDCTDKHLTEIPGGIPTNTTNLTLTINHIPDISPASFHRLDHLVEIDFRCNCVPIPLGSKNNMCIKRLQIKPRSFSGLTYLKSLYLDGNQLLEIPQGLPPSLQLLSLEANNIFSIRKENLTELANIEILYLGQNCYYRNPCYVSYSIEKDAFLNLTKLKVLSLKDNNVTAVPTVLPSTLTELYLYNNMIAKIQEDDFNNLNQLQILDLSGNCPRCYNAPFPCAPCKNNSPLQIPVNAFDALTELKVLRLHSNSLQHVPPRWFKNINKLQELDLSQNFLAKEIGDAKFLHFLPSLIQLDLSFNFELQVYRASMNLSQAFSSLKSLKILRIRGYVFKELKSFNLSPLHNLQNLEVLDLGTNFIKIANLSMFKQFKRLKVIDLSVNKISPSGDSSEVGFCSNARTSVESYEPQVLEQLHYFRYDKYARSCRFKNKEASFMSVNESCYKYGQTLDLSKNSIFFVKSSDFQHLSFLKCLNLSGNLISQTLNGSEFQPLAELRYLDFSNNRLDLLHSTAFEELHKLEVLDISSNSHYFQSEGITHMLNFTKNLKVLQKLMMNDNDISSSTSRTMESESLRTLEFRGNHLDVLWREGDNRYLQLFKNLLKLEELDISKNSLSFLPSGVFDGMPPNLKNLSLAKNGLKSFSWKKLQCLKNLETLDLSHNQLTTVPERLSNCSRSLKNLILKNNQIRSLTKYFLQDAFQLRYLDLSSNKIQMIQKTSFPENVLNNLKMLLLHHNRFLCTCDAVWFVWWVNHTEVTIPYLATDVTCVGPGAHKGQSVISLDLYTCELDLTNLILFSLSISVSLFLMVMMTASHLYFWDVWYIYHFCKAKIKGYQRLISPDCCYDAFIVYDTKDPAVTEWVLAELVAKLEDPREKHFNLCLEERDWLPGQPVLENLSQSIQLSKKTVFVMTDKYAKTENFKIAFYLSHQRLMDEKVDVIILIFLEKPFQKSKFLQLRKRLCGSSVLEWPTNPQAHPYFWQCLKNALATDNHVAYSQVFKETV
Nature of the series: Activation of TLR7 in human PBMCs incubated for overnight duration followed by compound-treated cell supernatant conditioned media transfer to HCV1b transfected human HuH7-luc/neo replicon cells assessed as induction of INFalpha-mediated suppression of virus growth by firefly-luciferase reporter gene assay.

The target in series [8] is Toll-like receptor 3 (Homo sapiens) (UniProt O15455). Nature of the series: Agonist activity at wild-type human TLR3 expressed in HEK293 cells up to 25 uM measured after 6 hrs by NF-kappaB luciferase reporter gene assay. It is filed as cell-based.
Series [9] addresses T2, Toll-like receptor 7 (Homo sapiens). Briefly: Agonist activity at human TLR7 expressed in HEK293 cells measured after 6 hrs by NF-kappaB luciferase reporter gene assay. In kind it is cell-based.
Series [10] in a line: Cmax in cynomolgus monkey plasma at 9 mg/kg, administered through oral gavage measured after 24 hrs. In kind it is ADME, organism-based, Macaca fascicularis. Details: dose 9 mg/kg, route oral.

Structures are written as SMILES. Active and inactive are the calls of the source. The calls are words filed in the database; no cut-off is given here.

Toll-like receptor 3 (Homo sapiens), sequence (O15455 whole entry): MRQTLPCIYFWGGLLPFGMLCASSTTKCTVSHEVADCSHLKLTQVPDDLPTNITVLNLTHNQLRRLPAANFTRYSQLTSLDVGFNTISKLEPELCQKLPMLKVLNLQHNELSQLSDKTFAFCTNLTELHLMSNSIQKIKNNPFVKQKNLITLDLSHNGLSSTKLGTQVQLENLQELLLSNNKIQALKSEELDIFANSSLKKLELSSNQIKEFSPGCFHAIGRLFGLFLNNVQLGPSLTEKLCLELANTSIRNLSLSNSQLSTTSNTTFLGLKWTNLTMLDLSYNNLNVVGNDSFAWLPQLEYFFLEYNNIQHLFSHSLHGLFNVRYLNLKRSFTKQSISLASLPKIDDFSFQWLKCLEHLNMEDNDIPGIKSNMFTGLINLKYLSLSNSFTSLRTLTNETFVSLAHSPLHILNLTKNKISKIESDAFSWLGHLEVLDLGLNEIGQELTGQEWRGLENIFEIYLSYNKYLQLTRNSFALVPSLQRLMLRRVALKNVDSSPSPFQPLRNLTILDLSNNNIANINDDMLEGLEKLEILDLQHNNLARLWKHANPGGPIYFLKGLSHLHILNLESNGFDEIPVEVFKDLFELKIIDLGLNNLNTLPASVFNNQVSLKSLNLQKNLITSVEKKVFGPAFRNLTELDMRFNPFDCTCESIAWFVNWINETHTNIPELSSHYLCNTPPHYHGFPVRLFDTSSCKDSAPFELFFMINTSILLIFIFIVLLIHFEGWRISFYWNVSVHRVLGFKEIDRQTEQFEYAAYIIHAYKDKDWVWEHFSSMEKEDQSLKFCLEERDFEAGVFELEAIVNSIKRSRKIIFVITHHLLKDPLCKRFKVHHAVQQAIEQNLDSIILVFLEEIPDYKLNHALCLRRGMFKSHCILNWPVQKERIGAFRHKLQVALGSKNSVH

Consider `CCCC[C@@H](CCO)Nc1nc(N)ncc1OC`, for which, in [1], the bioavailability stood at 0.8%. Besides, in series [2], the AUC(0-t) at 24 h came out at 72 ng·h/mL. Also, in series [3], the apical-to-basolateral permeability (Papp A→B) at 1 µM is 23 ×10⁻⁶ cm/s. The result in [4] and in [8] was inactive. Further, the results for the Tmax in series [5] and in series [6] were 1 h and 1 to 2 h, respectively. The LED amounted to 0.5 µM in [7] and 1.6 µM in series [9]. The molecule further gave a Cmax in series [10] of 34 ng/mL.

By bioavailability is commonly meant the share of a dose that reaches the circulation, judged against a reference dose that is usually intravenous. A word on the AUC(0-t): it is exposure summed from dosing to a finite time, without extrapolation to infinity. The term Papp A→B denotes the apparent permeability from the apical to the basolateral side of a cell layer. As a reminder, the Tmax is the time at which the peak concentration occurs. The Cmax is the peak of the concentration-time curve.
